Results published in ChEMBL document CHEMBL1155134, “Structural basis for the potent calpain inhibitory activity of peptidyl alpha-ketoacids” (J Med Chem, 2008).
Residues, ends and D or L forms follow the SMILES beside them. *: point of attachment. Cbz = O=C(OCc1ccccc1)*

Target: T1, Calpain-1 catalytic subunit (Sus scrofa, UniProt P35750)
T1 sequence (P35750 whole entry): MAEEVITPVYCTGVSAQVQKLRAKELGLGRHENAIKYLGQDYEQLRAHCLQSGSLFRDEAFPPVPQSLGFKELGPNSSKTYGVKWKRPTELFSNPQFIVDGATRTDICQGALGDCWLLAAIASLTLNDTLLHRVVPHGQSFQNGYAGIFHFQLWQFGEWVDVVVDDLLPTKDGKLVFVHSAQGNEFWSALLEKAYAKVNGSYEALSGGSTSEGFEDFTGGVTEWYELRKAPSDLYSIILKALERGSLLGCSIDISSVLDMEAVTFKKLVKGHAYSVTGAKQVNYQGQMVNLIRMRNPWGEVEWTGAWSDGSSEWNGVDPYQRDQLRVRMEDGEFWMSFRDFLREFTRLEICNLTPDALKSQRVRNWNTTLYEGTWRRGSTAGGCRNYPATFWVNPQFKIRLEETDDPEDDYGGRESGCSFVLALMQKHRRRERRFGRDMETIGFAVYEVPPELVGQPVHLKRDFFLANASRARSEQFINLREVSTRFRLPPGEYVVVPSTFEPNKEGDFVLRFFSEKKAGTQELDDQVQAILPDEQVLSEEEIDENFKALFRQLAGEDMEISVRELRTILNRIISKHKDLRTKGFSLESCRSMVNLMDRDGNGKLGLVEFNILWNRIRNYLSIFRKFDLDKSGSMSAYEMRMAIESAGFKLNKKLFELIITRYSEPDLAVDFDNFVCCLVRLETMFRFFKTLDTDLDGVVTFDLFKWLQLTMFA
Test: Inhibition of pig erythrocyte mu-calpain by fluorometric assay

Row | SMILES | Ki [nM]
1 | CC(C)[C@H](NC(=O)OCc1ccccc1)C(=O)N[C@H](C=O)Cc1ccccc1 (Cbz-Val-Phe-aldehyde) | 10
2 | CC(C)C[C@H](NC(=O)CCC1CCCCC1)C(=O)NC(Cc1ccccc1)C(=O)C(=O)O (mixture of isomers) | 50
3 | CC(C)C[C@H](NC(=O)CC1c2ccccc2-c2ccccc21)C(=O)NC(Cc1ccccc1)C(=O)C(=O)O (mixture of isomers) | 8
4 | COC(=O)C(=O)C(Cc1ccccc1)NC(=O)[C@H](CC(C)C)NC(=O)CC12CC3CC(CC(C3)C1)C2 (mixture of isomers) | 450
5 | COC(=O)C(=O)C(Cc1ccccc1)NC(=O)[C@H](CC(C)C)NC(=O)C(c1ccccc1)c1ccccc1 (mixture of isomers) | 944
6 | CC(C)C[C@H](NC(=O)C(c1ccccc1)c1ccccc1)C(=O)NC(Cc1ccccc1)C(=O)C(=O)O (mixture of isomers) | 108
7 | CC(C)C[C@H](NC(=O)CC(c1ccccc1)c1ccccc1)C(=O)NC(Cc1ccccc1)C(=O)C(=O)O (mixture of isomers) | 63
8 | COC(=O)C(=O)C(Cc1ccccc1)NC(=O)[C@H](CC(C)C)NC(=O)CC1c2ccccc2-c2ccccc21 (mixture of isomers) | 1200
9 | CC(C)C[C@H](NC(=O)CC12CC3CC(CC(C3)C1)C2)C(=O)NC(Cc1ccccc1)C(=O)C(=O)O (mixture of isomers) | 41
10 | COC(=O)C(=O)C(Cc1ccccc1)NC(=O)[C@H](CC(C)C)NC(=O)CCC1CCCCC1 (mixture of isomers) | 1050
